Results reported in patent publication US10710992B2, “Substituted pyridinones as bromodomain inhibitors” (Zenith Epigenetics Ltd., priority 2014, dated 2020).

How the values were obtained:
[1] = molecular target: T1, Brd4 bromodomain 1 (BRD4(1)) (Homo sapiens, UniProt O60885); experiment: Inhibition of tetra-acetylated histone H4 binding to BET bromodomain (HTRF/FRET); settings: His-tagged bromodomain 200 nM, tetra-acetylated histone H4 peptide, 2 h room temperature
T1 construct: made in house; host or cells: E. coli BL21(DE3)
Procedure: Proteins were cloned and overexpressed with a N-terminal 6× His tag, then purified by nickel affinity followed by size exclusion chromatography. Briefly, E. coli BL21(DE3) cells were transformed with a recombinant expression vector encoding N-terminally Nickel affinity tagged bromodomains from Brd2, Brd3, Brd4. Cell cultures were incubated at 37° C. with shaking to the appropriate density and induced overnight with IPTG. The supernatant of lysed cells was loaded onto Ni-IDA column for purification. Eluted protein was pooled, concentrated and further purified by size exclusion chromatography. Fractions representing monomeric protein were pooled, concentrated, aliquoted, and frozen at −80° C. for use in subsequent experiments.
Binding of tetra-acetylated histone H4 and BET bromodomains was confirmed by a Homogenous Time Resolved Fluorescence Resonance Energy Transfer (HTRF®) method. N-terminally His-tagged bromodomains (200 nM) and biotinylated tetra-acetylated historic H4 peptide (25-50 nM, Millipore) were incubated in the presence of Europium Cryptate-labeled streptavidin (Cisbio Cat. #610SAKLB) and XL665-labeled monoclonal anti-His antibody (Cisbio Cat. #61HISXLB) in a white 96 well microtiter plate (Greiner). For inhibition assays, serially diluted test compound was added to these reactions in a 0.2% final concentration of DMSO. Duplicate wells were used for each concentration tested. Final buffer concentrations were 30 mM HEPES pH 7.4, 30 mM NaCl, 0.3 mM CHAPS, 20 mM phosphate pH 7.0, 320 mM KF, 0.08% BSA. After a 2 h incubation at room temperature, fluorescence was measured at 665 and 620 nm with a SynergyH4 plate reader (Biotek). The binding inhibitory activity was shown by a decrease in 665 nm relative to […] fluorescence. IC50 values were determined from a dose response curve.

[2] = test system: c-myc in Human AML MV4-11 cells; experiment: Inhibition of cMYC expression in cancer cell lines (mRNA, real-time PCR); assay type: cell-based; settings: Homo sapiens, 3 h, cMYC mRNA normalized to Cyclophilin
Procedure: MV4-11 cells (CRL-9591) were plated at a density of 2.5×10^4 cells per well in 96 well U-bottom plates and treated with increasing concentrations of test compound or DMSO (0.1%) in IMDM media containing 10% FBS and penicillin/streptomycin, and incubated for 3 h at 37° C. Triplicate wells were used for each concentration. Cells were pelleted by centrifugation and harvested using the mRNA Catcher PLUS kit according to manufacturer's instructions. The eluted mRNA isolated was then used in a one-step quantitative real-time PCR reaction, using components of the RNA UltraSense™ One-Step Kit (Life Technologies) together with Applied Biosystems TaqMan® primer-probes for cMYC and Cyclophilin. Real-time PCR plates were run on a ViiA™ 7 real time PCR machine (Applied Biosystems), data was analyzed, normalizing the Ct values for cMYC to an internal control, prior to determining the fold expression of each sample, relative to the control.

[3] = test system: Human AML MV-4-11 cells; experiment: Inhibition of cell proliferation in cancer cell lines (CellTiter Aqueous One); assay type: cell-based; settings: Homo sapiens; MV4-11 cells, 72 h
Procedure: MV4-11 cells (CRL-9591) were plated at a density of 5×10^4 cells per well in 96 well flat bottom plates and treated with increasing concentrations of test compound or DMSO (0.1%) in IMDM media containing 10% FBS and penicillin/streptomycin. Triplicate wells were used for each concentration and a well containing only media was used as a control. Plates were incubated at 37° C., 5% CO2 for 72 h before adding 20 μL of the CellTiter Aqueous One Solution (Promega) to each well and incubated at 37° C., 5% CO2 for an additional 3-4 h. The absorbance was read at 490 nm in a spectrophotometer and the percentage of cell titer relative to DMSO-treated cells was calculated after correcting for background by subtracting the blank well's signal. IC50 values were calculated using the GraphPad Prism software.

[4] = test system: hIL-6 mRNA; experiment: Inhibition of hIL-6 mRNA transcription in LPS-stimulated U937 cells; assay type: cell-based; settings: Homo sapiens, U-937; PMA-differentiated U937 cells, 1 h pretreatment, LPS 1 ug/mL, 3 h; read-out: IL-6 activity
Procedure: Human leukemic monocyte lymphoma U937 cells (CRL-1593.2) were plated at a density of 3.2×10^4 cells per well in a 96-well plate in 100 μL RPMI-1640 containing 10% FBS and penicillin/streptomycin, and differentiated into macrophages for 3 days in 60 ng/mL PMA ([…]) at 37° C. in 5% CO2 prior to the addition of compound. The cells were pretreated for 1 h with increasing concentrations of test compound in 0.1% DMSO prior to stimulation with 1 ug/mL lipopolysaccharide from Escherichia coli. Triplicate wells were used for each concentration. The cells were incubated at 37° C., 5% CO2 for 3 h before the cells were harvested. At time of harvest, media was removed and cells were rinsed in 200 μL PBS. Cells were harvested using the mRNA Catcher PLUS kit according to manufacturer's instructions. The eluted mRNA was then used in a one-step quantitative real-time PCR reaction using components of the RNA UltraSense™ One-Step Kit (Life Technologies) together with Applied Biosystems TaqMan® primer-probes for hIL-6 and Cyclophilin. Real-time PCR plates were run on a ViiA™ 7 real time PCR machine (Applied Biosystems), data was analyzed, normalizing the Ct values for hIL-6 to an internal control, prior to determining the fold expression of each sample, relative to the control.

[5] = test system: hApoA-1 mRNA; experiment: Up-regulation of hApoA-1 mRNA transcription in Huh7 cells; assay type: cell-based, Human; settings: EC170, Huh7 cells, 48 h
Procedure: In this example, hApoA-1 mRNA in tissue culture cells was quantitated to measure the transcriptional up-regulation of hApoA-1 when treated with a compound of the present disclosure.
Huh7 cells (2.5×10^5 per well) were plated in a 96-well plate using 100 μL DMEM per well, (Gibco DMEM supplemented with penicillin streptomycin and 10% FBS), 72 h before the addition of the compound. The cells are treated with increasing concentrations of the compound or DMSO (0.1%), and incubated at 37° C., 5% CO2 for 48 h. Spent media was removed from the Huh-7 cells and placed on ice for immediate use with the “LDH cytotoxicity assay Kit II” from Abcam. The cells remaining in the plate were rinsed with 100 μL PBS. Cells were harvested using the mRNA Catcher PLUS kit according to manufacturer's instructions. The eluted mRNA was then used in a one-step quantitative real-time PCR reaction, using components of the RNA UltraSense™ One-Step Kit (Life Technologies) together with Applied Biosystems TaqMan® primer-probes for hApoA-1 and Cyclophilin. Real-time PCR plates were run on a ViiA™ 7 real time PCR machine (Applied Biosystems), data was analyzed, normalizing the Ct values for hApoA-1 to an internal control, prior to determining the fold induction of each unknown sample, relative to the control.

| IC50 [1] [µM] | IC50 [3] [µM] | IC50 [4] [µM] | SMILES | IC50 [2] [µM] | ApoA-1 activity [5] |
| --- | --- | --- | --- | --- | --- |
| 0.3 to 3 | 3 to 30 | 0.3 to 3 | Cc1noc(C)c1-c1c[nH]c(=O)c(Nc2ccccc2)c1 [Example 1, 5-(3,5-dimethylisoxazol-4-yl)-3-(phenylamino)pyridin-2(1H)-one] | 3 to 30 | ++ (EC170 value between 0.3 and 3 μM were deemed to be very active (++)) |
| 3 to 30 |  | 3 to 30 | Cc1noc(C)c1-c1c[nH]c(=O)c(Nc2cccnc2)c1 [Example 2, 5-(3,5-dimethylisoxazol-4-yl)-3-(pyridin-3-ylamino)pyridin-2(1H)-one] |  | + (EC170 value between 3 and 30 μM were deemed to be active (+)) |
